Reference: ChEMBL document CHEMBL1155989, “Discovery of novel diarylketoxime derivatives as selective and orally active melanin-concentrating hormone 1 receptor antagonists” (Bioorg Med Chem Lett, 2009)
Each block holds one compound with its values, some of them ahead of it.

Key:
[1] = Metabolic stability in human liver microsomes assessed as compound remaining after 30 mins; format: ADME, Microsome; details: read-out: Stability
[2] = Metabolic stability in rat liver microsomes assessed as compound remaining after 30 mins; format: ADME, Microsome; details: read-out: Stability
[3] = Metabolic stability in mouse liver microsomes assessed as compound remaining after 30 mins; format: ADME, Microsome; details: read-out: Stability
[4] = Plasma clearance in Sprague-Dawley rat at 1 mg/kg, iv; format: ADME, organism-based; set-up: dose 1 mg/kg, route intravenous
[5] = Volume of distribution at steady state in Sprague-Dawley rat at 1 mg/kg, iv; format: ADME, organism-based; set-up: dose 1 mg/kg, route intravenous; details: in vivo, read-out: Vdss
[6] = Half life in Sprague-Dawley rat at 1 mg/kg, iv; format: ADME, organism-based; set-up: dose 1 mg/kg, route intravenous; details: in vivo
[7] = Cmax in Sprague-Dawley rat at 3 mg/kg, po; format: ADME, organism-based; set-up: dose 3 mg/kg, route oral; details: in vivo
[8] = test system: Rattus norvegicus; experiment: AUC (0 to infinity) in Sprague-Dawley rat at 3 mg/kg, po; format: ADME, organism-based, Plasma; set-up: time infinity, dose 3 mg/kg, route oral; details: in vivo
[9] = Oral bioavailability in Sprague-Dawley rat; format: ADME, organism-based; details: in vivo
[10] = Plasma concentration in Sprague-Dawley rat at 10 mg/kg, po after 2 hrs; format: ADME, organism-based; set-up: dose 10 mg/kg, route oral
[11] = test system: Brain; experiment: Drug level in Sprague-Dawley rat brain at 10 mg/kg, po after 2 hrs; format: ADME, organism-based; set-up: dose 10 mg/kg, route oral; details: in vivo
[12] = Drug level in Sprague-Dawley rat cerebrospinal fluid at 10 mg/kg, po after 2 hrs; format: ADME, organism-based; set-up: dose 10 mg/kg, route oral; details: read-out: Drug uptake
[13] = Ratio of drug level in brain to plasma of Sprague-Dawley rat at 10 mg/kg, po after 2 hrs; format: ADME, organism-based; set-up: dose 10 mg/kg, route oral
[14] = Cmax in diet-induced obese C57BL/6J mouse at 10 mg/kg, po; format: ADME, organism-based; set-up: dose 10 mg/kg, route oral; details: in vivo
[15] = Tmax in diet-induced obese C57BL/6J mouse at 10 mg/kg, po; format: ADME, organism-based; set-up: dose 10 mg/kg, route oral; details: in vivo
[16] = AUC (0 to infinity) in diet-induced obese C57BL/6J mouse at 10 mg/kg, po; format: ADME, organism-based; set-up: time infinity, dose 10 mg/kg, route oral; details: plasma
[17] = Cmax in diet-induced obese C57BL/6J mouse at 30 mg/kg, po; format: ADME, organism-based; set-up: dose 30 mg/kg, route oral; details: in vivo
[18] = Tmax in diet-induced obese C57BL/6J mouse at 30 mg/kg, po; format: ADME, organism-based; set-up: dose 30 mg/kg, route oral; details: in vivo
[19] = AUC (0 to infinity) in diet-induced obese C57BL/6J mouse at 30 mg/kg, po; format: ADME, organism-based; set-up: time infinity, dose 30 mg/kg, route oral; details: plasma
[20] = Plasma concentration in diet-induced obese C57BL/6J mouse at 30 mg/kg, po after 24 hrs; format: ADME, organism-based; set-up: dose 30 mg/kg, route oral
[21] = test system: Brain; experiment: Drug level in diet-induced obese C57BL/6J mouse brain at 30 mg/kg, po after 24 hrs; format: ADME, organism-based; set-up: dose 30 mg/kg, route oral; details: in vivo
[22] = Ratio of drug level in brain to plasma of diet-induced obese C57BL/6J mouse at 30 mg/kg, po after 24 hrs; format: ADME, organism-based; set-up: dose 30 mg/kg, route oral

remaining at 0.5 h [1]: 17%
remaining at 0.5 h [2]: 4%
remaining at 0.5 h [3]: 3%
Structure (SMILES): Fc1cc2c(cn1)C1(CCN(Cc3ccc(Oc4ccc(F)c(F)c4)cc3)CC1)OC2

remaining at 0.5 h [1]: 77%
remaining at 0.5 h [2]: 84%
remaining at 0.5 h [3]: 74%
Structure (SMILES): CCO/N=C(/c1ccc(F)c(F)c1)c1ccc(CN2CCC3(CC2)OCc2cc(=O)n(C)cc23)cn1

Structure (SMILES): CCO/N=C(/c1ccc(F)c(F)c1)c1ccc(CN2CCC3(CC2)OCc2cn(C)c(=O)cc23)cn1
remaining at 0.5 h [1]: 68%
remaining at 0.5 h [2]: 71%
remaining at 0.5 h [3]: 57%
clearance [4]: 13 mL/min/kg
Vd [5]: 1.6 L/kg
half-life [6]: 1.4 h
Cmax [7]: 1.85 µM
AUC [8]: 6.57 µM·h
bioavailability [9]: 87%
concentration at 2 h [10]: 4.5 µM
Drug uptake [11]: 2.2 nmol/g
concentration at 2 h [12]: 0.13 µM
Kp at 2 h [13]: 0.49
Cmax [14]: 4.27 µM
Tmax [15]: 2 h
AUC(0-inf) [16]: 15.4 µM·h
Cmax [17]: 15.6 µM
Tmax [18]: 2 h
AUC(0-inf) [19]: 90.7 µM·h
concentration at 24 h [20]: 0.119 µM
Drug uptake [21]: 0.052 nmol/g
Kp at 24 h [22]: 0.43

remaining at 0.5 h [1]: 0%
remaining at 0.5 h [2]: 2%
remaining at 0.5 h [3]: 11%
Structure (SMILES): CCO/N=C(/c1ccc(F)c(F)c1)c1ccc(CN2CCC3(CC2)OCc2cc(F)ncc23)cn1

Structure (SMILES): O=C(C(c1ccc(F)c(F)c1)n1cccn1)N(CCF)CCCN1CCC2(CC1)OCc1cc(F)ncc12 (centres undefined)
remaining at 0.5 h [1]: 12%
remaining at 0.5 h [2]: 31%
remaining at 0.5 h [3]: 22%
